Patent publication US6613747B2, “6-O-carbamoyl ketolide antibacterials” (Ortho-McNeil Pharmaceutical, Inc., priority 2000, dated 2003)
In brackets after ≈: the same amount, converted by molar mass. Where two headings read alike, the source gives them in different places.

What was measured:
Assay in all cases: MIC, microdilution broth method (NCCLS)
Type in all cases: cell-based
E. coli OC2605 = settings: A: E. coli OC2605, 35° C., 16-20 hours
Outline: (§1)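 MIC is read as growth in drug wells versus untreated growth-control wells after 16-20 hours at 35° C. Drug was serially diluted two-fold in cation-adjusted Mueller-Hinton broth. Turbidity-adjusted cultures gave about 5×10^4 CFU per well.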

E. faecalis ATCC29212 = settings: C: E. faecalis ATCC29212, 35° C., 16-20 hours
Outline: as §1

H. influenzae ATCC49247 = settings: E: H. influenzae ATCC49247, 35° C., 16-20 hours
Outline: as §1

S. aureus ATCC29213 = settings: B: S. aureus ATCC29213, 35° C., 16-20 hours
Outline: as §1

S. pneumoniae ATCC49619 = settings: D: S. pneumoniae ATCC49619, 35° C., 16-20 hours
Outline: as §1

Structure (SMILES) | MIC (E. coli OC2605) | MIC (E. faecalis ATCC29212) | MIC (H. influenzae ATCC49247) | MIC (S. aureus ATCC29213) | MIC (S. pneumoniae ATCC49619) | MIC (E. coli OC2605; Escherichia coli, read-out: MIC) | MIC (E. faecalis ATCC29212; Enterococcus faecalis, read-out: MIC) | MIC (H. influenzae ATCC49247; Haemophilus influenzae, read-out: MIC) | MIC (S. aureus ATCC29213; Staphylococcus aureus, read-out: MIC) | MIC (S. pneumoniae ATCC49619; Streptococcus pneumoniae, read-out: MIC)
CC[C@H]1OC(=O)[C@H](C)C(=O)[C@H](C)[C@@H](O[C@@H]2O[C@H](C)C[C@H](N(C)C)[C@H]2O)[C@](C)(OC(=O)NC/C=C/C=C/c2ccc(-n3cccn3)cc2)C[C@@H](C)C(=O)[C@H](C)[C@H]2NC(=O)O[C@@]21C [Compound 60] | >16 µg/mL | 0.5 µg/mL (≈ 0.588 µM) | 8 µg/mL (≈ 9.41 µM) | 1 µg/mL (≈ 1.18 µM) | 0.25 µg/mL (≈ 0.294 µM) | – | – | – | – | –
CC[C@H]1OC(=O)[C@H](C)C(=O)[C@H](C)[C@@H](O[C@@H]2O[C@H](C)C[C@H](N(C)C)[C@H]2O)[C@](C)(OC(=O)NCc2cnn(-c3ccccc3)c2)C[C@@H](C)C(=O)[C@H](C)[C@H]2NC(=O)O[C@@]21C [Compound 61] | 16 µg/mL (≈ 20.1 µM) | 0.06 µg/mL (≈ 0.0752 µM) | 2 µg/mL (≈ 2.51 µM) | 0.5 µg/mL (≈ 0.627 µM) | 0.03 µg/mL (≈ 0.0376 µM) | – | – | – | – | –
CC[C@H]1OC(=O)[C@H](C)C(=O)[C@H](C)[C@@H](O[C@@H]2O[C@H](C)C[C@H](N(C)C)[C@H]2O)[C@](C)(OC(=O)NC/C=C/c2cnn(-c3ccccc3)c2)C[C@@H](C)C(=O)[C@H](C)[C@H]2NC(=O)O[C@@]21C [Compound 62] | >16 µg/mL | 0.12 µg/mL (≈ 0.146 µM) | 4 µg/mL (≈ 4.85 µM) | 0.25 µg/mL (≈ 0.303 µM) | 0.06 µg/mL (≈ 0.0728 µM) | – | – | – | – | –
CC[C@H]1OC(=O)[C@H](C)C(=O)[C@H](C)[C@@H](O[C@@H]2O[C@H](C)C[C@H](N(C)C)[C@H]2O)[C@](C)(OC(=O)NCc2ccc(-n3cc(C)cn3)cc2)C[C@@H](C)C(=O)[C@H](C)[C@H]2NC(=O)O[C@@]21C [Compound 64] | >16 µg/mL | 0.12 µg/mL (≈ 0.148 µM) | 4 µg/mL (≈ 4.93 µM) | 1 µg/mL (≈ 1.23 µM) | 0.03 µg/mL (≈ 0.0369 µM) | – | – | – | – | –
CC[C@H]1OC(=O)[C@H](C)C(=O)[C@H](C)[C@@H](O[C@@H]2O[C@H](C)C[C@H](N(C)C)[C@H]2O)[C@](C)(OC(=O)NCc2cccc(-c3ncccn3)c2)C[C@@H](C)C(=O)[C@H](C)[C@H]2NC(=O)O[C@@]21C [Compound 65] | >16 µg/mL | 0.25 µg/mL (≈ 0.309 µM) | 8 µg/mL (≈ 9.88 µM) | 2 µg/mL (≈ 2.47 µM) | 0.06 µg/mL (≈ 0.0741 µM) | – | – | – | – | –
CC[C@H]1OC(=O)[C@H](C)C(=O)[C@H](C)[C@@H](O[C@@H]2O[C@H](C)C[C@H](N(C)C)[C@H]2O)[C@](C)(OC(=O)NC/C=C/c2cccc(-c3ncccn3)c2)C[C@@H](C)C(=O)[C@H](C)[C@H]2NC(=O)O[C@@]21C [Compound 66] | >16 µg/mL | 0.12 µg/mL (≈ 0.144 µM) | 4 µg/mL (≈ 4.78 µM) | 0.5 µg/mL (≈ 0.598 µM) | 0.06 µg/mL (≈ 0.0718 µM) | – | – | – | – | –
CC[C@H]1OC(=O)[C@H](C)C(=O)[C@H](C)[C@@H](O[C@@H]2O[C@H](C)C[C@H](N(C)C)[C@H]2O)[C@](C)(OC(=O)NC/C=C/c2ccc(-n3cc(C)cn3)cc2)C[C@@H](C)C(=O)[C@H](C)[C@H]2NC(=O)O[C@@]21C [Compound 67] | >16 µg/mL | 0.25 µg/mL (≈ 0.298 µM) | 4 µg/mL (≈ 4.77 µM) | 0.25 µg/mL (≈ 0.298 µM) | 0.06 µg/mL (≈ 0.0716 µM) | – | – | – | – | –
CC[C@H]1OC(=O)[C@H](C)C(=O)[C@H](C)[C@@H](O[C@@H]2O[C@H](C)C[C@H](N(C)C)[C@H]2O)[C@](C)(OC(=O)NC/C=C/c2ccc(-c3nccc(C)n3)cc2)C[C@@H](C)C(=O)[C@H](C)[C@H]2NC(=O)O[C@@]21C [Compound 68] | >16 µg/mL | 0.12 µg/mL (≈ 0.141 µM) | 4 µg/mL (≈ 4.71 µM) | 0.25 µg/mL (≈ 0.294 µM) | 0.03 µg/mL (≈ 0.0353 µM) | – | – | – | – | –
CC[C@H]1OC(=O)[C@H](C)C(=O)[C@H](C)[C@@H](O[C@@H]2O[C@H](C)C[C@H](N(C)C)[C@H]2O)[C@](C)(OC(=O)NCc2ccc(-c3nccc(C)n3)cc2)C[C@@H](C)C(=O)[C@H](C)[C@H]2NC(=O)O[C@@]21C [Compound 69] | >16 µg/mL | 0.12 µg/mL (≈ 0.146 µM) | 8 µg/mL (≈ 9.71 µM) | 0.5 µg/mL (≈ 0.607 µM) | 0.03 µg/mL (≈ 0.0364 µM) | – | – | – | – | –
CC[C@H]1OC(=O)[C@H](C)C(=O)[C@H](C)[C@@H](O[C@@H]2O[C@H](C)C[C@H](N(C)C)[C@H]2O)[C@](C)(OC(=O)NCc2ccc(-c3nccc(OC)n3)cc2)C[C@@H](C)C(=O)[C@H](C)[C@H]2NC(=O)O[C@@]21C [Compound 70] | 16 µg/mL (≈ 19 µM) | 0.12 µg/mL (≈ 0.143 µM) | 4 µg/mL (≈ 4.76 µM) | 0.25 µg/mL (≈ 0.298 µM) | 0.03 µg/mL (≈ 0.0357 µM) | – | – | – | – | –
CC[C@H]1OC(=O)[C@H](C)C(=O)[C@H](C)[C@@H](O[C@@H]2O[C@H](C)C[C@H](N(C)C)[C@H]2O)[C@](C)(OC(=O)NC/C=C/c2ccc(-c3nccc(OC)n3)cc2)C[C@@H](C)C(=O)[C@H](C)[C@H]2NC(=O)O[C@@]21C [Compound 71] | >16 µg/mL | 0.12 µg/mL (≈ 0.139 µM) | 4 µg/mL (≈ 4.62 µM) | 0.25 µg/mL (≈ 0.289 µM) | 0.06 µg/mL (≈ 0.0693 µM) | – | – | – | – | –
CC[C@H]1OC(=O)[C@H](C)C(=O)[C@H](C)[C@@H](O[C@@H]2O[C@H](C)C[C@H](N(C)C)[C@H]2O)[C@](C)(OC(=O)NC/C=C/c2ccc(Br)nc2)C[C@@H](C)C(=O)[C@H](C)[C@H]2NC(=O)O[C@@]21C [Compound 72] | 8 µg/mL (≈ 9.55 µM) | 0.06 µg/mL (≈ 0.0716 µM) | 2 µg/mL (≈ 2.39 µM) | 0.25 µg/mL (≈ 0.298 µM) | ≦0.015 μg/mL | – | – | – | – | –
CC[C@H]1OC(=O)[C@H](C)C(=O)[C@H](C)[C@@H](O[C@@H]2O[C@H](C)C[C@H](N(C)C)[C@H]2O)[C@](C)(OC(=O)NCc2ccc(-n3cccn3)cc2F)C[C@@H](C)C(=O)[C@H](C)[C@H]2NC(=O)O[C@@]21C [Compound 73] | 16 µg/mL (≈ 19.6 µM) | 0.06 µg/mL (≈ 0.0735 µM) | 2 µg/mL (≈ 2.45 µM) | 0.5 µg/mL (≈ 0.613 µM) | 0.03 µg/mL (≈ 0.0368 µM) | – | – | – | – | –
CC[C@H]1OC(=O)[C@H](C)C(=O)[C@H](C)[C@@H](O[C@@H]2O[C@H](C)C[C@H](N(C)C)[C@H]2O)[C@](C)(OC(=O)NC/C=C/c2ccc(-n3cccn3)cc2F)C[C@@H](C)C(=O)[C@H](C)[C@H]2NC(=O)O[C@@]21C [Compound 74] | 16 µg/mL (≈ 19 µM) | 0.06 µg/mL (≈ 0.0713 µM) | 1 µg/mL (≈ 1.19 µM) | 0.06 µg/mL (≈ 0.0713 µM) | ≦0.015 μg/mL | – | – | – | – | –
CCC1OC(=O)C(C)(F)C(=O)C(C)C(OC2OC(C)CC(N(C)C)C2O)C(C)(OC(=O)NCC=Cc2ccc(-c3ncccn3)cc2)CC(C)C(=O)C(C)C2NC(=O)OC12C (stereo not shown) [Compound 75] | >16 µg/mL | 0.12 µg/mL (≈ 0.141 µM) | 4 µg/mL (≈ 4.68 µM) | 0.25 µg/mL (≈ 0.293 µM) | 0.03 µg/mL (≈ 0.0351 µM) | – | – | – | – | –
CC[C@H]1OC(=O)[C@H](C)C(=O)[C@H](C)[C@@H](O[C@@H]2O[C@H](C)C[C@H](N(C)C)[C@H]2O)[C@](C)(OC(=O)NCc2ccc(-c3cnccn3)cc2)C[C@@H](C)C(=O)[C@H](C)[C@H]2NC(=O)O[C@@]21C [Compound 76] | 16 µg/mL (≈ 19.8 µM) | 0.06 µg/mL (≈ 0.0741 µM) | 2 µg/mL (≈ 2.47 µM) | 0.25 µg/mL (≈ 0.309 µM) | ≦0.015 μg/mL | – | – | – | – | –
CC[C@H]1OC(=O)[C@H](C)C(=O)[C@H](C)[C@@H](O[C@@H]2O[C@H](C)C[C@H](N(C)C)[C@H]2O)[C@](C)(OC(=O)NC/C=C/c2ccc(-c3cnccn3)cc2)C[C@@H](C)C(=O)[C@H](C)[C@H]2NC(=O)O[C@@]21C [Compound 77, Carbamic acid, [(2E)-3-(4-pyrazinylphenyl)-2-propenyl]-, (3aS,4R,7R,9R,10R,11R,13R,15R,15aR)-4-ethyltetradecahydro-3a,7,9,11,13,15-hexamethyl-2,6,8,14-tetraoxo-10-[[3,4,6-trideoxy-3-(dimethylamino)-β-D-xylo-hexopyranosyl]oxy]-2H-oxacyclotetradecino[4,3-d]oxazol-11-yl ester] | – | – | – | – | – | 16 µg/mL (≈ 19.1 µM) | 0.12 µg/mL (≈ 0.144 µM) | 4 µg/mL (≈ 4.78 µM) | 0.12 µg/mL (≈ 0.144 µM) | 0.03 µg/mL (≈ 0.0359 µM)
CC[C@H]1OC(=O)[C@H](C)C(=O)[C@H](C)[C@@H](O[C@@H]2O[C@H](C)C[C@H](N(C)C)[C@H]2O)[C@](C)(OC(=O)NC/C=C/c2ccc(-c3ccncn3)cc2)C[C@@H](C)C(=O)[C@H](C)[C@H]2NC(=O)O[C@@]21C [Compound 78] | >16 µg/mL | 0.06 µg/mL (≈ 0.0718 µM) | 4 µg/mL (≈ 4.78 µM) | 0.25 µg/mL (≈ 0.299 µM) | 0.03 µg/mL (≈ 0.0359 µM) | – | – | – | – | –
CC[C@H]1OC(=O)[C@H](C)C(=O)[C@H](C)[C@@H](O[C@@H]2O[C@H](C)C[C@H](N(C)C)[C@H]2O)[C@](C)(OC(=O)NCc2ccc(-c3ccncn3)cc2)C[C@@H](C)C(=O)[C@H](C)[C@H]2NC(=O)O[C@@]21C [Compound 79] | 8 µg/mL (≈ 9.88 µM) | 0.06 µg/mL (≈ 0.0741 µM) | 2 µg/mL (≈ 2.47 µM) | 0.25 µg/mL (≈ 0.309 µM) | 0.03 µg/mL (≈ 0.037 µM) | – | – | – | – | –
CC[C@H]1OC(=O)[C@H](C)C(=O)[C@H](C)[C@@H](O[C@@H]2O[C@H](C)C[C@H](N(C)C)[C@H]2O)[C@](C)(OC(=O)NCCCc2ccc(-c3ncccn3)cc2)C[C@@H](C)C(=O)[C@H](C)[C@H]2NC(=O)O[C@@]21C [Compound 80, Carbamic acid, [3-[4-(2-2pyrimidinyl)phenyl]propyl]-, (3aS,4R,7R,9R,10R,11R,13R,15R,15aR)-4-ethyltetradecahydro-3a,7,9,11,13,15-hexamethyl-2,6,8,14-tetraoxo-10-[[3,4,6-trideoxy-3-(dimethylamino)-b-β-xylo-hexopyranosyl]oxy]-2H-oxacyclotetradecino[4,3-d]oxazol-11-yl ester] | >16 µg/mL | 0.06 µg/mL (≈ 0.0716 µM) | 4 µg/mL (≈ 4.77 µM) | 0.12 µg/mL (≈ 0.143 µM) | 0.03 µg/mL (≈ 0.0358 µM) | – | – | – | – | –
